From publication PMC9820208, “A Chloroplast-Localized Glucose-6-Phosphate Dehydrogenase Positively Regulates Stripe Rust Resistance in Wheat” (International Journal of Molecular Sciences, 2022)

Tested on: T1, TaG6PDH2 (TaG6PDH2-2D)
T1 construct: CDS in pET15b-sumo, E. coli BL21 (DE3), 6xHis and SUMO tags, about 75 kDa on gel; His-Trap FF purified fusion
Experiment: G6PDH activity, double-reciprocal plot ([…]/V vs. […]/[G6P])
Format: biochemical, Triticum aestivum
Settings: purified His-SUMO fusion; assay conditions only by reference; read-out: KmG6P

Km: 1980 µM
Compound: O=P(O)(O)OC[C@H]1OC(O)[C@H](O)[C@@H](O)[C@@H]1O (stereo partly shown) [G6P, glucose-6-phosphate]
